Laboratory results as given in ChEMBL document CHEMBL5729389, “1,4-diphenyl-1H-imidazole and 2,4-diphenylthiazole derivatives and preparation method therefor and use thereof” (2022).

Target: Toll-like receptor 1/2 (Homo sapiens, UniProt O60603+Q15399)
Experiment: TBD: TBD
Format: protein-complex assay

Toll-like receptor 1/2, sequence (O60603 whole entry): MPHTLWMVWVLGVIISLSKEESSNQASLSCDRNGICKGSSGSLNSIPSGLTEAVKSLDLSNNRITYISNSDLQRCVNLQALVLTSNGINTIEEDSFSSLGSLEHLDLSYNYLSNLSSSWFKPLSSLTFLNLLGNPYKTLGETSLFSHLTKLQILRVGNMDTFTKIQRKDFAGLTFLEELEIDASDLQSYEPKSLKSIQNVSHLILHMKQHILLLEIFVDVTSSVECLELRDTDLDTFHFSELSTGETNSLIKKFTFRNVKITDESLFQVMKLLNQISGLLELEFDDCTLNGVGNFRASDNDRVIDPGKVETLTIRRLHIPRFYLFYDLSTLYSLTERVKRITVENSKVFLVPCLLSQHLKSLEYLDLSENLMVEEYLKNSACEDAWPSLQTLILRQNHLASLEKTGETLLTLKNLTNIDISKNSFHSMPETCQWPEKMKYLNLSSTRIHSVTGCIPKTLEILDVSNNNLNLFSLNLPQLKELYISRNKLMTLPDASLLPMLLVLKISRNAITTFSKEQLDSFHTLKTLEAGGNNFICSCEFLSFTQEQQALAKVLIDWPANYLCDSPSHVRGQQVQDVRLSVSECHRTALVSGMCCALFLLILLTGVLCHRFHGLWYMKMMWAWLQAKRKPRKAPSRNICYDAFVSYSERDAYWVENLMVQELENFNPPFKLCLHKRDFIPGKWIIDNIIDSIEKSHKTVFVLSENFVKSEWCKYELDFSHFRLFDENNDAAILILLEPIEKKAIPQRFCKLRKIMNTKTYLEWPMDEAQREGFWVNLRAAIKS
Toll-like receptor 1/2, sequence (Q15399 whole entry): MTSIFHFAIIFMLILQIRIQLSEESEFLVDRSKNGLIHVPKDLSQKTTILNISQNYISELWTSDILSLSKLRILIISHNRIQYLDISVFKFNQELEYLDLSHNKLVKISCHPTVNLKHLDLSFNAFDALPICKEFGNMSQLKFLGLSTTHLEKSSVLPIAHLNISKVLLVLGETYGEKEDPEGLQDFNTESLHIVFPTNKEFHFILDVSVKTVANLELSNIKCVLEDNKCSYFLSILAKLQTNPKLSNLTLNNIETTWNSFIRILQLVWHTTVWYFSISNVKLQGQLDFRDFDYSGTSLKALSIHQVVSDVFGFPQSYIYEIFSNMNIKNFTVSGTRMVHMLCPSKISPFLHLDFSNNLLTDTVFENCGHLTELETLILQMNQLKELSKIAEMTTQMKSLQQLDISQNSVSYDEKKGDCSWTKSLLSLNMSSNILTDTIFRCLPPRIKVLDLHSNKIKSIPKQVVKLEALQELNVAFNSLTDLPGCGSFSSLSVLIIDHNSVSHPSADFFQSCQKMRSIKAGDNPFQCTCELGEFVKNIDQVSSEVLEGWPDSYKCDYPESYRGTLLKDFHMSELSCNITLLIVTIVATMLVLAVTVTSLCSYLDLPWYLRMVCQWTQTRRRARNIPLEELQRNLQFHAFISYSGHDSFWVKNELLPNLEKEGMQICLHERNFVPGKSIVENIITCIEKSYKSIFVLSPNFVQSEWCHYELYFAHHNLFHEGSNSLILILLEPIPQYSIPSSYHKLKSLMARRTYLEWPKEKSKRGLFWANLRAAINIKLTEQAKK

Row | EC50 | SMILES
1 | > 1000 nM | O=[N+]([O-])c1ccc(-c2nc(-c3ccc(C(F)(F)F)cc3)cs2)cc1
2 | > 1000 nM | CNc1ccc([N+](=O)[O-])cc1-n1cnc(-c2ccc(C(F)(F)F)cc2OCCN)c1
3 | > 1000 nM | FC(F)(F)c1ccc(-c2csc(-c3ccc(C(F)(F)F)cc3)n2)cc1
4 | > 1000 nM | O=[N+]([O-])c1ccc(Cl)c(-c2nc(-c3ccc(C(F)(F)F)cc3O)cs2)c1
5 | 49.1 nM | CNc1ccc([N+](=O)[O-])cc1-n1cnc(-c2ccc(C(F)(F)F)cc2OS(=O)(=O)O)c1
6 | > 1000 nM | Oc1cc(C(F)(F)F)ccc1-c1csc(-c2ccc(C(F)(F)F)cc2)n1
7 | > 1000 nM | COc1ccc(-c2nc(-c3ccc(C(F)(F)F)cc3O)cs2)cc1
